PMC7646624 (European journal of medicinal chemistry, 2020)
“Also recorded” adds a separate entry of the source.

Legend:
GST-DOT1L [1] = molecular target: T1, GST-DOT1L (Homo sapiens, UniProt Q8TEK3); test: Saturation transfer difference; assay type: binding; conditions: SAH added in five-fold molar excess
[2] = tested on: H3K4, H3K27, H3K36, H4K20 methylation; test: Western blot analysis of other histone methylation marks in MLL-AF9 cells
H3K79 methylation = test: Western blot analysis of H3K79 methylation in MLL-AF9 cells
GST-DOT1L [3] = molecular target: T1, GST-DOT1L; test: In vitro radio-isotope labeling DOT1L histone methyltransferase; conditions: ratio of IC50 values, initial radio-isotope assays
PRMT4 = molecular target: T2, PRMT4 (Homo sapiens, UniProt Q86X55); test: Methyltransferase profiling; assay type: biochemical
T2 sequence (Q86X55 1-608): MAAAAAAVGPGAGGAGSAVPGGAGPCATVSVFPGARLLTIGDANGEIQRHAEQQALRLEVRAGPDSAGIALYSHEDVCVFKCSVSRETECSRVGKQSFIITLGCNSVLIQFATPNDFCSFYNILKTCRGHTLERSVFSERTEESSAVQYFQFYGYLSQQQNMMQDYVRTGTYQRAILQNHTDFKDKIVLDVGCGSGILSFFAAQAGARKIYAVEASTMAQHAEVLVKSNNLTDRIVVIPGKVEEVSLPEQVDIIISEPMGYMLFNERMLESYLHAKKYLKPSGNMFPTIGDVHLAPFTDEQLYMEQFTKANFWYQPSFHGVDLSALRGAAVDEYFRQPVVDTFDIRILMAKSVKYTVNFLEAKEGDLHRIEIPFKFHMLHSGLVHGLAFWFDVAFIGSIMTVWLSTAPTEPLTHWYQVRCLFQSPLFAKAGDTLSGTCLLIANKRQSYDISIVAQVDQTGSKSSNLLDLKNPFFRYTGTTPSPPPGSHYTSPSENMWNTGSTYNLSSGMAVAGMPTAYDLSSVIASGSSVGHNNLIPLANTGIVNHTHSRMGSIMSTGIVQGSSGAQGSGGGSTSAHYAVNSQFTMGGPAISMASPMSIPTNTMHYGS

PRMT6 = PRMT6 (Homo sapiens, UniProt Q96LA8); test: Methyltransferase profiling; assay type: biochemical
PRMT5-MEP50 complex = PRMT5-MEP50 complex (Homo sapiens, UniProt O14744); test: Methyltransferase profiling; assay type: biochemical
PRMT1 = PRMT1 (Homo sapiens, UniProt Q99873); test: Methyltransferase profiling; assay type: biochemical
SUV39H2 = SUV39H2 (Homo sapiens, UniProt Q9H5I1); test: Methyltransferase profiling; assay type: biochemical
[4] = tested on: panel of Methyltransferases; test: Methyltransferase profiling; assay type: biochemical; conditions: omitted from Table 2
PRMT3 = PRMT3 (Homo sapiens, UniProt O60678); test: biochemical
PRMT5 Alone = PRMT5 Alone (Homo sapiens, UniProt O14744); test: biochemical
E2A-HLF cells = conditions: DOT1L-independent negative control line
[5] = tested on: MLL-AF9 transformed cells; conditions: various doses
[6] = tested on: MLL-AF9 transformed cells

SUV39H2, sequence (Q9H5I1 whole entry): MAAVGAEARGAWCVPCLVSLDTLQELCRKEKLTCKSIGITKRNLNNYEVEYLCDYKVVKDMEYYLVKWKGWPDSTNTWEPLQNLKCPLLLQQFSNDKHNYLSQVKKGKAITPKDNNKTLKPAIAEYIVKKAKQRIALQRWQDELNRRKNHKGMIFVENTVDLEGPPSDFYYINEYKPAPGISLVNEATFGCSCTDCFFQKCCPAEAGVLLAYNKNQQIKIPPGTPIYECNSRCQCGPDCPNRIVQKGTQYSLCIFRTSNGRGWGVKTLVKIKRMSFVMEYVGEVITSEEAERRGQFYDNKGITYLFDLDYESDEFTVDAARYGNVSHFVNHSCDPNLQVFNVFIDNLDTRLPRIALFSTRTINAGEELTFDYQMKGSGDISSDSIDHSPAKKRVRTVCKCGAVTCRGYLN
PRMT3, sequence (O60678 whole entry): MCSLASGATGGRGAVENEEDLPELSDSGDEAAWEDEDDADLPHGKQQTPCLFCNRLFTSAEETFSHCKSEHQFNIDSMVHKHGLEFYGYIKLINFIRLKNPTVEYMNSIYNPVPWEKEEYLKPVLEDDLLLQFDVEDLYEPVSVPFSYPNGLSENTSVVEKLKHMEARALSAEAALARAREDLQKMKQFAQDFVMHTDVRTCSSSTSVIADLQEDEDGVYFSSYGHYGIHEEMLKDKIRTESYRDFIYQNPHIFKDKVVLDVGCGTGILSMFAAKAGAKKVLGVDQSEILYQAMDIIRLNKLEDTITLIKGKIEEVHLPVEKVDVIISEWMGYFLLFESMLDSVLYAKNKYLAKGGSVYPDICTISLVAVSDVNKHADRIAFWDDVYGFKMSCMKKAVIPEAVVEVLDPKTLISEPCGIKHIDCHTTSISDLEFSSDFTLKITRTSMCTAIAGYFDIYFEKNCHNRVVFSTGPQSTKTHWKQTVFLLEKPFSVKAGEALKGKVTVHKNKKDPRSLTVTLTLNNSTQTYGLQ
PRMT5-MEP50 complex, sequence (O14744 whole entry): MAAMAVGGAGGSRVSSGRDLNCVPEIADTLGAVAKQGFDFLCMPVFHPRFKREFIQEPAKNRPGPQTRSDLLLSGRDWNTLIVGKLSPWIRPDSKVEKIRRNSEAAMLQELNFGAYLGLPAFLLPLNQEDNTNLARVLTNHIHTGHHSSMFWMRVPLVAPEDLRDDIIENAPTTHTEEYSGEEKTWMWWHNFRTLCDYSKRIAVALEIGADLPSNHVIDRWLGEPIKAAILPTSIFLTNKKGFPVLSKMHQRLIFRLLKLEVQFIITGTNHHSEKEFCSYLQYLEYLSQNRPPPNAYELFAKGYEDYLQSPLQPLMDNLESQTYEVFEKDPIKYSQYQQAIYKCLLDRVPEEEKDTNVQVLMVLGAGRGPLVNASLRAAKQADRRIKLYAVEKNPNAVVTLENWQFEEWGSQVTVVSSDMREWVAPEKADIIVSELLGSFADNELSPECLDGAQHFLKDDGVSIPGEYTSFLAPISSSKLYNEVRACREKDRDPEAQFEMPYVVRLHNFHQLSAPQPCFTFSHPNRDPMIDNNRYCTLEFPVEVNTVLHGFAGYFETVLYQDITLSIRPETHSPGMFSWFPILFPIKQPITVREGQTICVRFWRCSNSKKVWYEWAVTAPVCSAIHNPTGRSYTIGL
PRMT5-MEP50 complex, sequence (Q9BQA1 whole entry partner): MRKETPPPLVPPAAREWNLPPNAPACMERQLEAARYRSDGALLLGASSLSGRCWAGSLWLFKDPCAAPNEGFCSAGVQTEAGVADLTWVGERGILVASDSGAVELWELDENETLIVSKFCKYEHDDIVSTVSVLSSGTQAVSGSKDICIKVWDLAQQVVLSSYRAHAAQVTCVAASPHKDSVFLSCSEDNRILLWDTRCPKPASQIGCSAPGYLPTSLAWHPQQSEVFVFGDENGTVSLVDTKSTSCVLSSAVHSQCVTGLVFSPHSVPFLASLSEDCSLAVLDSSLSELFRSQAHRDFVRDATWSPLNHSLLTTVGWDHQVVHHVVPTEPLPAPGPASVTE
PRMT1, sequence (Q99873 whole entry): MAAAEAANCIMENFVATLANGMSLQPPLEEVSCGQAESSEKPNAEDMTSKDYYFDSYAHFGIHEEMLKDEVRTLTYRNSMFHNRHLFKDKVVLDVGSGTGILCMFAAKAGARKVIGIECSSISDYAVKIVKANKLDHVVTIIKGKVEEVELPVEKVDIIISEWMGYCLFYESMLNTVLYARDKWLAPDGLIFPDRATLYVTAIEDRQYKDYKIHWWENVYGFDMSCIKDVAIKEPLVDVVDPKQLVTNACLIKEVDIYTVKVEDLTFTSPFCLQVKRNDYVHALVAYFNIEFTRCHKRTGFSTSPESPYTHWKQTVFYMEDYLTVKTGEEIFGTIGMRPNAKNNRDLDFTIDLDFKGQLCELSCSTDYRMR
PRMT6, sequence (Q96LA8 whole entry): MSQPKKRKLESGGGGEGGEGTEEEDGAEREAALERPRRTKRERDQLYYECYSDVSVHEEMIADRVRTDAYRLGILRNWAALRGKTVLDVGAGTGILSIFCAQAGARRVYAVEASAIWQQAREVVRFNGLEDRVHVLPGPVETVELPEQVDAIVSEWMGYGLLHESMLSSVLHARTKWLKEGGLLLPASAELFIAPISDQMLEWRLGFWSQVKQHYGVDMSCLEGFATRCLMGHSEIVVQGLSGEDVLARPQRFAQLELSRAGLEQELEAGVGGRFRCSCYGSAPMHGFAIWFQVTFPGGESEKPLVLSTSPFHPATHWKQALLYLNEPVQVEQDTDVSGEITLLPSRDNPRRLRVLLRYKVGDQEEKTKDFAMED
T1 sequence (Q8TEK3 1-420): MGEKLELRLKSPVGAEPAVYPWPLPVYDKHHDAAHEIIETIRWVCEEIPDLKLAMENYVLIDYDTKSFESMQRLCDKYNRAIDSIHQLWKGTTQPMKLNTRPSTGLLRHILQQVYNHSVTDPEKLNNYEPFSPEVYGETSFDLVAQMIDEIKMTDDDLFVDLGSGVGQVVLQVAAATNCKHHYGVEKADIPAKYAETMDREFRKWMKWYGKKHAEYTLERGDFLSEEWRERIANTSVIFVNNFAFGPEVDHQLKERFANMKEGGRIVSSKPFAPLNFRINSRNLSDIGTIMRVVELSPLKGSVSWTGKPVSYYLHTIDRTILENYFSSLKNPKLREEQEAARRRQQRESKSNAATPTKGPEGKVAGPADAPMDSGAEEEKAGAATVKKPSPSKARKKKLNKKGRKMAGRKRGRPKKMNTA
PRMT5 Alone, sequence (O14744 whole entry): as the sequence (O14744 whole entry) above

SMILES	IC50 (PRMT4) [µM]	IC50 (PRMT6) [µM]	IC50 (PRMT5-MEP50 complex) [µM]	IC50 (PRMT1) [µM]	IC50 (SUV39H2) [µM]	IC50 (PRMT3) [µM]	other results
Nc1ncnc2c1ncn2[C@@H]1O[C@H](CNCc2ccc(OCC(=O)Nc3ccccn3)cc2)[C@@H](O)[C@H]1O [Compound 2]	–	–	–	–	–	–	competitive STD NMR with SAH (GST-DOT1L [1]): competed off by SAH; H3K4, H3K27, and H3K36 trimethylation states [2]: not changed; cellular H3K79 methylation (H3K79 methylation; time course of 3, 6 and 9 days): inhibits cellular H3K79 dimethylation; also recorded: reduced
Cc1ccc(NC(=O)c2ncn(CC(=O)NCc3ccc4c(c3)OCO4)n2)cc1C [Compound 9, 1-(2-((benzo[d][1,3]dioxol-5-ylmethyl)amino)-2-oxoethyl)-N-(3,4-dimethylphenyl)-1H-1,2,4-triazole-3-carboxamide]	–	–	–	–	–	–	fold better activity than 8 (GST-DOT1L [3]): 1.5 fold
Cc1ccc(NC(=O)c2ncn(CC(=O)NCc3ccc4c(N)nccc4c3)n2)cc1C [Compound 19, 1-(2-(((1-aminoisoquinolin-6-yl)methyl)amino)-2-oxoethyl)-N-(3,4-dimethylphenyl)-1H-1,2,4-triazole-3-carboxamide]	> 250	> 250	> 250	> 250	–	–	–
Cc1ccc(NC(=O)c2ncn(CC(=O)NCCn3ccc4c(N)ncnc43)n2)cc1C [Compound 20, 1-(2-((2-(4-amino-7H-pyrrolo[2,3-d]pyrimidin-7-yl)ethyl)amino)-2-oxoethyl)-N-(3,4-dimethylphenyl)-1H-1,2,4-triazole-3-carboxamide]	–	–	–	–	> 250	–	–
CC(C)(C)c1ccc(NC(=O)c2ncn(CC(=O)NCc3ccc4c(c3)OCO4)n2)cc1 [Compound 22, 1-(2-((benzo[d][1,3]dioxol-5-ylmethyl)amino)-2-oxoethyl)-N-(4-(tert-butyl)phenyl)-1H-1,2,4-triazole-3-carboxamide]	–	–	–	–	–	–	activity versus all MTs tested in the profiling assays [4]: inactive
CC(C)(C)c1ccc(NC(=O)c2ncn(CC(=O)NCc3ccc4[nH]ncc4c3)n2)cc1 [Compound 23, 1-(2-(((1H-indazol-5-yl)methyl)amino)-2-oxoethyl)-N-(4-(tert-butyl)phenyl)-1H-1,2,4-triazole-3-carboxamide]	–	–	–	–	> 250	–	–
CC(C)(C)c1ccc(NC(=O)c2ncn(CC(=O)NCc3ccc4c(N)nccc4c3)n2)cc1 [Compound 24, 1-(2-(((1-aminoisoquinolin-6-yl)methyl)amino)-2-oxoethyl)-N-(4-(tert-butyl)phenyl)-1H-1,2,4-triazole-3-carboxamide]	> 250	> 250	> 250	> 250	> 250	41.1	IC50 (PRMT5 Alone): 227 µM
CC(C)(C)c1ccc(NC(=O)c2ncn(CC(=O)NCCn3ccc4c(N)ncnc43)n2)cc1 [Compound 25, 1-(2-((2-(4-amino-7H-pyrrolo[2,3-d]pyrimidin-7-yl)ethyl)amino)-2-oxoethyl)-N-(4-(tert-butyl)phenyl)-1H-1,2,4-triazole-3-carboxamide]	> 250	> 250	> 250	> 250	> 250	149	effect on the growth of E2A-HLF cells (E2A-HLF cells): without showing any effect on the growth; IC50 (PRMT5 Alone): 187 µM; H3K4me3 and H4K20me2 ([2]; day 6): no significant changes; cellular H3K79 methylation (H3K79 methylation; day 6): dose-dependent inhibition; cellular H3K79 methylation (H3K79 methylation; day 9, 30 μM): complete inhibition; cellular H3K79 methylation (H3K79 methylation; day 9, 10 and 3 μM): significant decrease; cell differentiation, Wright-Giemsa stain [5]: dose-dependent cell differentiation; cell growth inhibition of MLL-AF9 cells ([6]; day 11 at 30 μM): complete cell growth inhibition; killing of MLL-AF9 cells versus E2A-HLF cells ([6]; murine established leukemia cell lines): selectively killed MLL-AF9
Nc1nccc2cc(CNC(=O)Cn3cnc(C(=O)NC4CCCCC4)n3)ccc12 [Compound 28, 1-(2-(((1-aminoisoquinolin-6-yl)methyl)amino)-2-oxoethyl)-N-cyclohexyl-1H-1,2,4-triazole-3-carboxamide]	> 250	> 250	> 250	> 250	–	–	–
Nc1ncnc2c1ncn2[C@@H]1O[C@H](CSCC[C@H](N)C(=O)O)[C@@H](O)[C@H]1O [SAH, S-adenosylhomocysteine, reference compound]	–	–	–	–	–	1.44	–
